Measurements reported in PubChem BioAssay AID1963862 (Molecular Pharmacology Branch, DTP, NCI, 2024).
pIC50: −log10 of the molar value.

Tested on: KRAS patient-derived spheroids with HUVEC/MSC, viability
Assay: Anticancer human tumor 941728-121-R-J1-PDC patient-derived lung adenocarcinoma cell line growth inhibition [KRAS2]
Conditions: for pIC50: curve of first compound; for viability, T/C: stronger effect = lower value; active = viability on the fitted dose curve at most 10% of control; inactive = the rest
In short: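 KRAS-mutant tumor cells were grown as spheroids with HUVEC endothelial cells and human MSCs as stroma. Targeted agents were tested alone and with KRAS pathway inhibitors. Doses started at or near clinical Cmax, or 10 microM, descending half-log.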

[1] = second compound 0.1 µM, first compound 0.000316 µM
[2] = second compound 0.1 µM, first compound 0.001 µM
[3] = second compound 0.1 µM, first compound 0.00316 µM
[4] = second compound 0.1 µM, first compound 0.01 µM
[5] = second compound 0.1 µM, first compound 0.0316 µM
[6] = second compound 0.316 µM, first compound 0.000316 µM
[7] = second compound 0.316 µM, first compound 0.001 µM
[8] = second compound 0.316 µM, first compound 0.00316 µM
[9] = second compound 0.316 µM, first compound 0.01 µM
[10] = second compound 0.316 µM, first compound 0.0316 µM
[11] = second compound 1 µM, first compound 0.000316 µM
[12] = second compound 1 µM, first compound 0.001 µM
[13] = second compound 1 µM, first compound 0.00316 µM
[14] = second compound 1 µM, first compound 0.01 µM
[15] = second compound 1 µM, first compound 0.0316 µM
[16] = second compound 3.16 µM, first compound 0.000316 µM
[17] = second compound 3.16 µM, first compound 0.001 µM
[18] = second compound 3.16 µM, first compound 0.00316 µM
[19] = second compound 3.16 µM, first compound 0.01 µM
[20] = second compound 3.16 µM, first compound 0.0316 µM
[21] = second compound 10 µM, first compound 0.000316 µM
[22] = second compound 10 µM, first compound 0.001 µM
[23] = second compound 10 µM, first compound 0.00316 µM
[24] = second compound 10 µM, first compound 0.01 µM
[25] = second compound 10 µM, first compound 0.0316 µM
[26] = second compound 0.1 µM, first compound 0.1 µM
[27] = second compound 0.1 µM, first compound 0.316 µM
[28] = second compound 0.1 µM, first compound 1 µM
[29] = second compound 0.1 µM, first compound 3.16 µM
[30] = second compound 0.316 µM, first compound 0.1 µM
[31] = second compound 0.316 µM, first compound 0.316 µM
[32] = second compound 0.316 µM, first compound 1 µM
[33] = second compound 0.316 µM, first compound 3.16 µM
[34] = second compound 1 µM, first compound 0.1 µM
[35] = second compound 1 µM, first compound 0.316 µM
[36] = second compound 1 µM, first compound 1 µM
[37] = second compound 1 µM, first compound 3.16 µM
[38] = second compound 3.16 µM, first compound 0.1 µM
[39] = second compound 3.16 µM, first compound 0.316 µM
[40] = second compound 3.16 µM, first compound 1 µM
[41] = second compound 3.16 µM, first compound 3.16 µM
[42] = second compound 10 µM, first compound 0.1 µM
[43] = second compound 10 µM, first compound 0.316 µM
[44] = second compound 10 µM, first compound 1 µM
[45] = second compound 10 µM, first compound 3.16 µM
[46] = second compound 0.1 µM, first compound 10 µM
[47] = second compound 0.316 µM, first compound 10 µM
[48] = second compound 1 µM, first compound 10 µM
[49] = second compound 3.16 µM, first compound 10 µM
[50] = second compound 10 µM, first compound 10 µM
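Also: spheroids exposed to agents for seven days before readout.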

CC(=O)Nc1cccc(-n2c(=O)n(C3CC3)c(=O)c3c(Nc4ccc(I)cc4F)n(C)c(=O)c(C)c32)c1 + CNCc1ccccc1-c1csc(C(C)Nc2nc(C)nc3cc(OC)c(OC)cc23)c1
active: viability, T/C [15] 7.52% | viability, T/C (second compound 3.16 µM, first compound 0.0001 µM) 0.3% | viability, T/C [16] 0.14% | viability, T/C [17] 0.76% | viability, T/C [18] 0.17% | viability, T/C [19] 0.16% | viability, T/C [20] 0.25% | viability, T/C (second compound 10 µM, first compound 0.0001 µM) 0.16% | viability, T/C [21] 0.16% | viability, T/C [22] 0.17% | viability, T/C [23] 0.15% | viability, T/C [24] 0.14% | viability, T/C [25] 0.26%
> 10.00: pIC50 (second compound 0.316 µM) | pIC50 (second compound 1 µM) | pIC50 (second compound 3.16 µM) | pIC50 (second compound 10 µM)
9.92: pIC50 (second compound 0.1 µM)
inactive: viability, T/C (second compound 0.1 µM, first compound 0.0001 µM) 51.3% | viability, T/C [1] 46.8% | viability, T/C [2] 38.1% | viability, T/C [3] 37.7% | viability, T/C [4] 35.7% | viability, T/C [5] 27.9% | viability, T/C (second compound 0.316 µM, first compound 0.0001 µM) 44.4% | viability, T/C [6] 44.1% | viability, T/C [7] 34.2% | viability, T/C [8] 31.8% | viability, T/C [9] 30.5% | viability, T/C [10] 21.9% | viability, T/C (second compound 1 µM, first compound 0.0001 µM) 35.3% | viability, T/C [11] 33% | viability, T/C [12] 26.8% | viability, T/C [13] 23% | viability, T/C [14] 14%

CC(=O)OC12COC1CC(O)C1(C)C(=O)C(O)C3=C(C)C(OC(=O)C(O)C(NC(=O)OC(C)(C)C)c4ccccc4)CC(O)(C(OC(=O)c4ccccc4)C21)C3(C)C (stereo not given) + CNCc1ccccc1-c1csc(C(C)Nc2nc(C)nc3cc(OC)c(OC)cc23)c1
inactive: viability, T/C [4] 35.7% | viability, T/C [5] 37.4% | viability, T/C [26] 32% | viability, T/C [27] 38.3% | viability, T/C [28] 34.3% | viability, T/C [29] 41.8% | viability, T/C [9] 28% | viability, T/C [10] 28% | viability, T/C [30] 27% | viability, T/C [31] 25.9% | viability, T/C [32] 29.3% | viability, T/C [33] 30.2% | viability, T/C [14] 29.2% | viability, T/C [15] 34.3% | viability, T/C [34] 34.5% | viability, T/C [35] 36% | viability, T/C [36] 38% | viability, T/C [37] 33% | viability, T/C [19] 18.7%
> 8.00: pIC50 (second compound 0.1 µM) | pIC50 (second compound 0.316 µM) | pIC50 (second compound 1 µM) | pIC50 (second compound 3.16 µM) | pIC50 (second compound 10 µM)
active: viability, T/C [20] 0.11% | viability, T/C [38] 0.09% | viability, T/C [39] 0.11% | viability, T/C [40] 0.1% | viability, T/C [41] 31.5% | viability, T/C [24] 0.14% | viability, T/C [25] 0.09% | viability, T/C [42] 0.1% | viability, T/C [43] 0.13% | viability, T/C [44] 28.4% | viability, T/C [45] 0.21%

CN(C)C/C=C/C(=O)Nc1cc2c(Nc3ccc(F)c(Cl)c3)ncnc2cc1O[C@H]1CCOC1 + CNCc1ccccc1-c1csc(C(C)Nc2nc(C)nc3cc(OC)c(OC)cc23)c1
inactive: viability, T/C [1] 44% | viability, T/C [2] 45.9% | viability, T/C [3] 36.2% | viability, T/C [4] 34.6% | viability, T/C [5] 31.6% | viability, T/C [26] 35.6% | viability, T/C [6] 32.6% | viability, T/C [7] 24.5% | viability, T/C [8] 28.5% | viability, T/C [9] 23.8% | viability, T/C [10] 25.6% | viability, T/C [30] 29.9% | viability, T/C [11] 20.5% | viability, T/C [12] 19.6% | viability, T/C [13] 18.5% | viability, T/C [14] 19.6% | viability, T/C [15] 20.6% | viability, T/C [34] 19.4%
active: viability, T/C [16] 0.61% | viability, T/C [17] 0.24% | viability, T/C [18] 0.15% | viability, T/C [19] 0.14% | viability, T/C [20] 0.13% | viability, T/C [38] 0.18% | viability, T/C [21] 0.05% | viability, T/C [22] 0.04% | viability, T/C [23] 0.04% | viability, T/C [24] 0.08% | viability, T/C [25] 0.04% | viability, T/C [42] 0.32%
> 9.50: pIC50 (second compound 0.1 µM) | pIC50 (second compound 0.316 µM) | pIC50 (second compound 1 µM) | pIC50 (second compound 3.16 µM) | pIC50 (second compound 10 µM)

COC(=O)c1ccc2c(C(=Nc3ccc(N(C)C(=O)CN4CCN(C)CC4)cc3)c3ccccc3)c(O)[nH]c2c1 + CNCc1ccccc1-c1csc(C(C)Nc2nc(C)nc3cc(OC)c(OC)cc23)c1
5.76: pIC50 (second compound 0.1 µM)
inactive: viability, T/C [5] 59.9% | viability, T/C [26] 49.5% | viability, T/C [27] 47.1% | viability, T/C [28] 63.4% | viability, T/C [29] 42.4% | viability, T/C [46] 35.8% | viability, T/C [10] 46.4% | viability, T/C [30] 44.1% | viability, T/C [31] 41.5% | viability, T/C [32] 35% | viability, T/C [33] 9.64% | viability, T/C [47] 20.3% | viability, T/C [15] 22.6% | viability, T/C [34] 24.5% | viability, T/C [35] 19.5% | viability, T/C [36] 25.6% | viability, T/C [37] 3.56%
> 7.50: pIC50 (second compound 0.316 µM) | pIC50 (second compound 1 µM) | pIC50 (second compound 3.16 µM) | pIC50 (second compound 10 µM)
active: viability, T/C [48] 5.39% | viability, T/C [20] 0.42% | viability, T/C [38] 0.43% | viability, T/C [39] 0.22% | viability, T/C [40] 0.73% | viability, T/C [41] 0.79% | viability, T/C [49] 0.62% | viability, T/C [25] 0.47% | viability, T/C [42] 0.1% | viability, T/C [43] 0.08% | viability, T/C [44] 0.1% | viability, T/C [45] 0.11% | viability, T/C [50] 0.15%

COc1cc(Nc2ncc3c(n2)-c2ccc(Cl)cc2C(c2c(F)cccc2OC)=NC3)ccc1C(=O)O + CNCc1ccccc1-c1csc(C(C)Nc2nc(C)nc3cc(OC)c(OC)cc23)c1
inactive: viability, T/C [5] 48.4% | viability, T/C [26] 47.5% | viability, T/C [27] 37.5% | viability, T/C [28] 45.4% | viability, T/C [29] 47.6% | viability, T/C [46] 34.7% | viability, T/C [10] 44.2% | viability, T/C [30] 36% | viability, T/C [31] 32.6% | viability, T/C [32] 32.2% | viability, T/C [33] 36.4% | viability, T/C [47] 33.6% | viability, T/C [15] 31.4% | viability, T/C [34] 28.4% | viability, T/C [35] 27.3% | viability, T/C [36] 27.5% | viability, T/C [37] 25.6% | viability, T/C [48] 15.1%
active: viability, T/C [20] 0.4% | viability, T/C [38] 0.28% | viability, T/C [39] 0.18% | viability, T/C [40] 0.33% | viability, T/C [41] 0.26% | viability, T/C [49] 4.13% | viability, T/C [25] 0.15% | viability, T/C [42] 0.22% | viability, T/C [43] 0.1% | viability, T/C [44] 0.1% | viability, T/C [45] 0.11% | viability, T/C [50] 0.5%
> 7.50: pIC50 (second compound 0.1 µM) | pIC50 (second compound 0.316 µM) | pIC50 (second compound 1 µM) | pIC50 (second compound 3.16 µM) | pIC50 (second compound 10 µM)

O=C(c1cc(Cc2n[nH]c(=O)c3ccccc23)ccc1F)N1CCN(C(=O)C2CC2)CC1 + CNCc1ccccc1-c1csc(C(C)Nc2nc(C)nc3cc(OC)c(OC)cc23)c1
> 7.50: pIC50 (second compound 0.316 µM) | pIC50 (second compound 1 µM) | pIC50 (second compound 3.16 µM) | pIC50 (second compound 10 µM)
< 5.00: pIC50 (second compound 0.1 µM)
inactive: viability, T/C [5] 59% | viability, T/C [26] 65.2% | viability, T/C [27] 53.3% | viability, T/C [28] 54.6% | viability, T/C [29] 65.6% | viability, T/C [46] 67.8% | viability, T/C [10] 47.1% | viability, T/C [30] 45.5% | viability, T/C [31] 52.7% | viability, T/C [32] 55.1% | viability, T/C [33] 51.4% | viability, T/C [47] 67% | viability, T/C [15] 40.2% | viability, T/C [34] 48% | viability, T/C [35] 47.3% | viability, T/C [36] 51.7% | viability, T/C [37] 49.8% | viability, T/C [48] 58.5%
active: viability, T/C [20] 0.61% | viability, T/C [38] 1.87% | viability, T/C [39] 0.81% | viability, T/C [40] 0.22% | viability, T/C [41] 2.29% | viability, T/C [49] 0.22% | viability, T/C [25] 0.42% | viability, T/C [42] 0.09% | viability, T/C [43] 0.09% | viability, T/C [44] 0.09% | viability, T/C [45] 0.2% | viability, T/C [50] 0.14%
